The results in this text go back to US11111317B2, “Cordyceps militaris medium polysaccharide, method for separating and purifying same, and use thereof” (SOUTH CHINA NORMAL UNIVERSITY, priority 2018, dated 2021).

The test deals with hyperuricemia model mice. Nature of the test: Uric acid lowering ability in hyperuricemia model mice (xanthine + oteracil potassium). In kind it is in vivo. To be noted: positive group 50 mg/kg by gavage, seven days, mouse serum. How it is done: Sixty male mice are randomly divided into six groups after one week's feeding, with 10 mice in each group, including a blank group, a model group, a high P1 dose group (400 mg/kg), a middle P1 dose group (200 mg/kg), a low P1 dose group (100 mg/kg) and a positive drug (50 mg/kg) control group. Every morning, the model group, the positive control group and the high, middle and low P1 dose groups are administered with 600 mg/kg of xanthine (ig) by gavage+100 mg/kg of oteracil potassium (ip) by intraperitoneal injection, fasting but water available for one hour before the model is made, and the blank group is administered with the same dose of normal saline. In the afternoon, the high, middle and low P1 dose groups are administered with the polysaccharide suspension by gavage; the positive control group is administered with 50 mg/kg of allopurinol suspension by gavage; the model group and the blank group are administered with the same volume of normal saline by gavage for seven consecutive days.
On the seventh day, 1 hour after administration in the afternoon, the mice are weighed and decapitated for blood collection. The blood is centrifuged at 3000 r/min for 10 min after being placed at room temperature for 40 min, and the upper layer of the serum is pipetted. Serum uric acid (UA), serum creatinine (CREA) and serum urea nitrogen (BUN) values are measured by kits to investigate the effects of the polysaccharide P1 on UA, CREA and BUN, as well as renal functions in the hyperuricemia model mice.

As for `Oc1ncnc2[nH]ncc12` [Positive, allopurinol], the “BUN (serum urea nitrogen)” value is given as 6.99 ± 1.10 mmol/L, the “CREA (serum creatinine)” value was 71.69 ± 8.43 µmol/L and the “UA (serum uric acid)” value stood at 108.83 ± 6.53 µmol/L.
